The record followed here is paper PMC9068610, “Biliverdin regulates NR2E3 and zebrafish retinal photoreceptor development” (Scientific Reports, 2022).

Common to all, as to assay type: binding
The target of assay [1] is T1, NR2E3 (Homo sapiens, UniProt Q9Y5X4, R311Q).
T1 construct: MBP-NR2E3 LBD R311Q variant
T1 sequence (Q9Y5X4 164-410 R311Q): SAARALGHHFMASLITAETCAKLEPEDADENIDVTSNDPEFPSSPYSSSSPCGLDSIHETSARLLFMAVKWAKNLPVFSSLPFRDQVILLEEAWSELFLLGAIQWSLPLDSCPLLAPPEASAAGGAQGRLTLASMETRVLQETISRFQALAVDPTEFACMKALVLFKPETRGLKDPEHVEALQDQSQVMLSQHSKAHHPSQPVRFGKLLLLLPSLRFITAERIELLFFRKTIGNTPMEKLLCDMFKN
In words: visible absorbance titration.

The target in assay [2] is T2, NR2E3 (Homo sapiens, UniProt Q9Y5X4).
T2 construct: MBP-NR2E3 LBD (amino acid residues 164–410 of 410 residue NR2E3)
T2 sequence (Q9Y5X4 164-410): T1 sequence (Q9Y5X4 164-410 R311Q) with Q148R
In words: visible absorbance titration; also gel filtration co-purification with LC-MS.

In the next assay the target is T3, zebrafish NR2E3 (Danio rerio, UniProt Q5U3F3).
T3 construct: MBP-DrNR2E3 LBD
T3 sequence (Q5U3F3 178-419 limits assumed): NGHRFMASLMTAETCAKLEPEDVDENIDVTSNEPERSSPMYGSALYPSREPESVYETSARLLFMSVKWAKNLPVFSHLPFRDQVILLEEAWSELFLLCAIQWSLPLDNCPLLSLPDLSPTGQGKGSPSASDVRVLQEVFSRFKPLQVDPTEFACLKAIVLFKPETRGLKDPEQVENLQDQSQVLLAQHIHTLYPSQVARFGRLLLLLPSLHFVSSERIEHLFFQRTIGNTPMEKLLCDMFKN
The assay can be described thus: visible absorbance titration.

Substitutions are numbered along the chain they refer to.

`C=CC1=C(C)/C(=C/C2=NC(=C\c3[nH]c(/C=C4\NC(=O)C(C)=C4C=C)c(C)c3CCC(=O)O)/C(CCC(=O)O)=C2C)NC1=O` [biliverdin]: the values for the Kd on NR2E3 [1] and at NR2E3 [2] were 9 µM and 0.2 µM, respectively. Besides, the visible absorbance titration entry on zebrafish NR2E3 is given as “the spectrum of biliverdin showed changes similar to the one observed with human NR2E3^LBD”.
